Measured values as given in ChEMBL document CHEMBL1201862, “PubChem BioAssay data set” (2004).
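Interpolation was linear, between the two tested concentrations surrounding the appropriate level; five concentrations were tested over 48 hours in 96-well plates. At the GI50, growth is halved.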 Active and inactive are the calls of the source. Rule as the data show it: active = GI50 up to about 1.1 µM and inactive = higher.

What was measured:
Assay in all cases: DTP human tumour cell line panel, 48 h
786-0 = system: 786-0
A498 = system: A498
CCRF-CEM = system: CCRF-CEM
EKVX = system: EKVX
HCT-15 = system: HCT-15
HT-29 = system: HT-29
MOLT-4 = system: MOLT-4
Malme-3M = system: Malme-3M
NCI/ADR-RES = system: NCI/ADR-RES
OVCAR-3 = system: OVCAR-3
PC-3 = system: PC-3
SK-MEL-28 = system: SK-MEL-28
SNB-75 = system: SNB-75
U-251 = system: U-251
UACC-257 = system: UACC-257
UO-31 = system: UO-31
A549 = system: A549
KM12 = system: KM12
RXF 393 = system: RXF 393
SK-OV-3 = system: SK-OV-3

## CCCCN(CCCC)CCC(O)c1cc(-c2ccc(C(F)(F)F)cc2)nc(-c2ccc(C(F)(F)F)cc2)c1 (stereo not given)
786-0
  GI50: > 100 µM (inactive)
A498
  GI50: > 100 µM (inactive)
CCRF-CEM
  GI50: > 100 µM (inactive)
EKVX
  GI50: > 100 µM (inactive)
HCT-15
  GI50: > 100 µM
HT-29
  GI50: > 100 µM (inactive)
MOLT-4
  GI50: > 100 µM (inactive)
Malme-3M
  GI50: > 100 µM (inactive)
NCI/ADR-RES
  GI50: > 100 µM (inactive)
OVCAR-3
  GI50: > 100 µM (inactive)
PC-3
  GI50: > 100 µM (inactive)
SK-MEL-28
  GI50: > 100 µM (inactive)
SNB-75
  GI50: > 100 µM (inactive)
U-251
  GI50: > 100 µM (inactive)
UACC-257
  GI50: > 100 µM (inactive)
UO-31
  GI50: > 100 µM (inactive)

## O=[N+]([O-])c1ccc(/C=C/c2ccc(/C=C/c3ccc([N+](=O)[O-])cc3[N+](=O)[O-])cc2)c([N+](=O)[O-])c1
786-0
  GI50: > 100 µM (inactive)
A498
  GI50: > 100 µM (inactive)
A549
  GI50: > 100 µM (inactive)
CCRF-CEM
  GI50: > 100 µM (inactive)
EKVX
  GI50: > 100 µM (inactive)
HCT-15
  GI50: > 100 µM
HT-29
  GI50: > 100 µM (inactive)
KM12
  GI50: > 100 µM (inactive)
MOLT-4
  GI50: > 100 µM (inactive)
Malme-3M
  GI50: > 100 µM (inactive)
OVCAR-3
  GI50: > 100 µM (inactive)
RXF 393
  GI50: > 100 µM (inactive)
SK-MEL-28
  GI50: > 100 µM (inactive)
SK-OV-3
  GI50: > 100 µM (inactive)
SNB-75
  GI50: > 100 µM (inactive)
U-251
  GI50: > 100 µM (inactive)
UACC-257
  GI50: > 100 µM (inactive)
UO-31
  GI50: > 100 µM (inactive)

## CO/C(=N\N=C\c1ccc(Cl)cc1Cl)c1ccncc1
786-0
  GI50: > 10 µM (inactive)
A549
  GI50: > 10 µM (inactive)
CCRF-CEM
  GI50: > 10 µM (inactive)
EKVX
  GI50: > 10 µM (inactive)
HCT-15
  GI50: > 10 µM
HT-29
  GI50: > 10 µM (inactive)
KM12
  GI50: > 10 µM (inactive)
MOLT-4
  GI50: > 10 µM (inactive)
Malme-3M
  GI50: > 10 µM (inactive)
NCI/ADR-RES
  GI50: > 10 µM (inactive)
OVCAR-3
  GI50: > 10 µM (inactive)
PC-3
  GI50: > 10 µM (inactive)
RXF 393
  GI50: > 10 µM (inactive)
U-251
  GI50: > 10 µM (inactive)
UACC-257
  GI50: > 10 µM (inactive)
UO-31
  GI50: > 10 µM (inactive)

## CS(=O)(=O)Nc1ccc(N2Cc3c[nH]c4ccc5nccc2c5c34)cc1
786-0
  GI50: 14.3 µM (inactive)
A498
  GI50: 23.2 µM (inactive)
A549
  GI50: 33.4 µM (inactive)
CCRF-CEM
  GI50: 7.33 µM (inactive)
EKVX
  GI50: 44.7 µM (inactive)
HCT-15
  GI50: > 100 µM
HT-29
  GI50: 25.5 µM (inactive)
KM12
  GI50: 17.6 µM (inactive)
MOLT-4
  GI50: 2.72 µM (inactive)
Malme-3M
  GI50: 4.54 µM (inactive)
NCI/ADR-RES
  GI50: > 100 µM (inactive)
OVCAR-3
  GI50: 9.98 µM (inactive)
PC-3
  GI50: 16.1 µM (inactive)
SK-MEL-28
  GI50: 18.9 µM (inactive)
U-251
  GI50: 15.4 µM (inactive)
UACC-257
  GI50: 14.5 µM (inactive)
UO-31
  GI50: > 100 µM (inactive)

## Nc1nc(SCc2ccccc2Cl)c2ncn(C3OC(CO)C(O)C3O)c2n1 (stereo not given)
786-0
  GI50: > 100 µM (inactive)
A498
  GI50: 87.3 µM (inactive)
A549
  GI50: 96.6 µM (inactive)
CCRF-CEM
  GI50: > 100 µM (inactive)
HCT-15
  GI50: > 100 µM
HT-29
  GI50: > 100 µM (inactive)
KM12
  GI50: > 100 µM (inactive)
MOLT-4
  GI50: 49.3 µM (inactive)
Malme-3M
  GI50: > 100 µM (inactive)
OVCAR-3
  GI50: 80.4 µM (inactive)
RXF 393
  GI50: 28.6 µM (inactive)
SK-MEL-28
  GI50: 69.2 µM (inactive)
SK-OV-3
  GI50: > 100 µM (inactive)
SNB-75
  GI50: 23.3 µM (inactive)
U-251
  GI50: > 100 µM (inactive)
UO-31
  GI50: 29.1 µM (inactive)

## CSc1cnc2ccccc2c1Sc1c[nH]c2ccccc2c1=O
786-0
  GI50: 15.3 µM (inactive)
A498
  GI50: 12.4 µM (inactive)
A549
  GI50: 5.51 µM (inactive)
CCRF-CEM
  GI50: 4.52 µM (inactive)
EKVX
  GI50: 7.87 µM (inactive)
HCT-15
  GI50: 7.1 µM
HT-29
  GI50: 3.72 µM (inactive)
KM12
  GI50: 6.82 µM (inactive)
MOLT-4
  GI50: 3.28 µM (inactive)
Malme-3M
  GI50: 6.55 µM (inactive)
OVCAR-3
  GI50: 5.22 µM (inactive)
RXF 393
  GI50: 13.7 µM (inactive)
SK-MEL-28
  GI50: 11.1 µM (inactive)
SK-OV-3
  GI50: 3.51 µM (inactive)
SNB-75
  GI50: 2.79 µM (inactive)
U-251
  GI50: 6.49 µM (inactive)
UACC-257
  GI50: 11.3 µM (inactive)
UO-31
  GI50: 14 µM (inactive)

## N#Cc1c(NN)nc(NN)c(C#N)c1-c1ccccc1
786-0
  GI50: > 100 µM (inactive)
A498
  GI50: > 100 µM (inactive)
A549
  GI50: > 100 µM (inactive)
CCRF-CEM
  GI50: > 100 µM (inactive)
EKVX
  GI50: > 100 µM (inactive)
HCT-15
  GI50: > 100 µM
HT-29
  GI50: > 100 µM (inactive)
KM12
  GI50: > 100 µM (inactive)
MOLT-4
  GI50: > 100 µM (inactive)
Malme-3M
  GI50: > 100 µM (inactive)
OVCAR-3
  GI50: > 100 µM (inactive)
RXF 393
  GI50: 96.6 µM (inactive)
SK-MEL-28
  GI50: > 100 µM (inactive)
SK-OV-3
  GI50: > 100 µM (inactive)
SNB-75
  GI50: > 100 µM (inactive)
UACC-257
  GI50: > 100 µM (inactive)
UO-31
  GI50: > 100 µM (inactive)

## COc1ccc2c(c1)OCC1Cc3cccc(OC)c3OC21 (stereo not given)
786-0
  GI50: > 100 µM (inactive)
A498
  GI50: > 100 µM (inactive)
A549
  GI50: 70 µM (inactive)
CCRF-CEM
  GI50: 40 µM (inactive)
EKVX
  GI50: 52.2 µM (inactive)
HCT-15
  GI50: 48 µM
HT-29
  GI50: 72.8 µM (inactive)
KM12
  GI50: 65 µM (inactive)
MOLT-4
  GI50: 28 µM (inactive)
Malme-3M
  GI50: 70.8 µM (inactive)
NCI/ADR-RES
  GI50: 31.1 µM (inactive)
OVCAR-3
  GI50: 51.2 µM (inactive)
PC-3
  GI50: 35.6 µM (inactive)
SK-OV-3
  GI50: > 100 µM (inactive)
U-251
  GI50: > 100 µM (inactive)
UACC-257
  GI50: 36.1 µM (inactive)
UO-31
  GI50: 30.3 µM (inactive)
